Key:
Rv3722c [1] = target: T1, Rv3722c (Mycobacterium tuberculosis, UniProt O69689)
Rv3722c [2] = target: T1, Rv3722c; remark: listed apart in the source

T1 sequence (O69689 whole entry): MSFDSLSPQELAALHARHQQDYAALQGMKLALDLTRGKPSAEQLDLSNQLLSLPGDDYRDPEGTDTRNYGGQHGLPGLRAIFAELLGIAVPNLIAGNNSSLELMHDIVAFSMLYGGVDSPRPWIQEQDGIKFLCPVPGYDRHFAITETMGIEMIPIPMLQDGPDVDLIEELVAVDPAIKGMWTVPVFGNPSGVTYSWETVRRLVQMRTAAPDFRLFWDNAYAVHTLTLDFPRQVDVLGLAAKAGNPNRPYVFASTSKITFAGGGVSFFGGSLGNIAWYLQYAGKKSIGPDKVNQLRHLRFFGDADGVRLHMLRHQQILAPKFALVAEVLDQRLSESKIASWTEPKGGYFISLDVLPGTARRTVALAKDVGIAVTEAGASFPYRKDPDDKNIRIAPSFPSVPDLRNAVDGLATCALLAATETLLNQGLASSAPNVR

Compound | X-ray crystal structure, 2.23 Å (Rv3722c [1]) | X-ray crystal structure, 2.6 Å (Rv3722c [2])
Cc1ncc(COP(=O)(O)O)c(C=O)c1O [pyridoxal phosphate] | the external aldimine intermediate PLP-kynurenine (PLP-Kyn) | 
O=C(O)c1cc(O)c2ccccc2n1 [kynurenic acid] | or the final keto acid product kynurenic acid (Kyna) | 
N[C@@H](CCC(=O)O)C(=O)O [Glu] |  | clear electron density of the amino acid in the active site
Nc1ccccc1C(=O)C[C@H](N)C(=O)O [kynurenine] | chains were bound to either the external aldimine intermediate PLP-kynurenine (PLP-Kyn) | 

Reference: paper PMC7181641, “Aspartate aminotransferase Rv3722c governs aspartate-dependent nitrogen metabolism in Mycobacterium tuberculosis” (Nature Communications, 2020)
